Entries after “also recorded” stand apart in the source; their conditions may differ.

Here are results for two compounds from patent US20150174108A1, “METHOD OF WEIGHT REDUCTION” (priority 2012, published 2015).

Holding throughout (type): in vivo, human
Test [1] is described as follows: 24 week randomised placebo-controlled double-blind clinical trial: HbA1c. As to conditions: for ΔHbA1c Week 24, Mean ± SD / ΔHbA1c Week 24, Median (range): change from baseline (Day 0) to Week 24; for HbA1c Week 24, Mean ± SD / HbA1c Week 24, Median (range): type 2 diabetes patients, methazolamide 40 mg b.i.d. Here is the method:
(§1) The safety and efficacy of methazolamide (40 mg administered twice daily) as a potential treatment for type 2 diabetes were evaluated in a 24 week, randomised, placebo-controlled double-blind clinical trial. The primary efficacy endpoint for the clinical trial was a reduction in HbA1c (ΔHbA1c) from baseline with methazolamide, relative to placebo, after 24 weeks of treatment. Secondary efficacy endpoints included reduction in body weight and improvements in cardiovascular measures such as blood pressure. The primary safety measurement was the effect of methazolamide, compared to placebo, on venous blood gas parameters; a measure of acidosis.
(§2) The clinical trial initially enrolled type 2 diabetes patients who were not treated with any anti-diabetic agent prior to entry into the trial (NAIVE) The trial was expanded to include participants who had been treated with metformin for at least 3 months and were on a stable metformin dose for at least 8 weeks prior to entering the trial (MET). The metformin dose was not altered throughout the trial.
(§3) Participants randomized into the clinical trial were administered either daily doses of methazolamide (40 mg b.i.d.) or placebo for 24 weeks. Methazolamide was taken as 1×30 mg capsule and 1×10 mg capsule per dose at breakfast and dinner. Placebo (microcrystalline cellulose) was administered in identical presentation. After an initial randomization visit to the clinic (Day 0), participants returned to the clinic at weeks 1, 2, 4, 8, 12, 18 and 24 for physical examinations, laboratory analyses, body composition measures, evaluation of glycemic parameters (fasting blood glucose, fasting insulin, HbA1c) and measurement of venous blood gas analysis.
(§4) Mean changes in body weight over time are depicted in FIG. 1.

The nature of test [2]: 24 week randomised placebo-controlled double-blind clinical trial: body mass index. Particulars: for ΔBMI Week 24, Mean ± SD / ΔBMI Week 24, Median (range): change from baseline (Day 0) to Week 24; for BMI Week 24, Mean ± SD / BMI Week 24, Median (range): type 2 diabetes patients. As to the method:
as §1, §2, §3, §4

Test [3] in a line: 24 week randomised placebo-controlled double-blind clinical trial: body weight. As to conditions: for ΔBW Week 24, Mean ± SD / ΔBW Week 24, Median (range): change from baseline (Day 0) to Week 24; for body weight change over the study: metformin-treated patients who received placebo; for BW Week 24, Mean ± SD / BW Week 24, Median (range): type 2 diabetes patients. Here is the method: as §1, §2, §3, §4
Thus an unexpected and selective effect of methazolamide on the metformin-treated patients was observed.

[4] abbreviates: difference to the matching placebo group, Week 24.

For `CN(C)C(=N)NC(=N)N` [Placebo + Met, metformin], in test [1], the “ΔHbA1c Week 24, Mean ± SD” value was −0.04 ± 0.71%; the “ΔHbA1c Week 24, Median (range)” value was −0.2 (−0.9, +1.4) %; the “HbA1c Week 24, Mean ± SD” value is on record as 7.50 ± 0.84%; the “HbA1c Week 24, Median (range)” value is 7.3 (6.6, 9.8) %. Besides, in test [2], the “ΔBMI Week 24, Mean ± SD” value is reported as −0.06 ± 0.58 kg/m^2; the “ΔBMI Week 24, Median (range)” value was −0.2 (−0.8, +1.5) kg/m^2; the “BMI Week 24, Mean ± SD” value was 29.7 ± 4.7 kg/m^2; the “BMI Week 24, Median (range)” value is reported as 29.1 (23.6-39.5) kg/m^2. Moreover, in test [3], the “ΔBW Week 24, Mean ± SD” value is -0.3 ± 1.7 kg; the “ΔBW Week 24, Median (range)” value is −0.5 (−2.8, +3.9) kg; the “BW Week 24, Mean ± SD” value is 90.3 ± 15.9 kg; the “BW Week 24, Median (range)” value is given as 87.6 (68.5, 133.6) kg. For the same compound, in test [3] (24 weeks), the “body weight change over the study” value is “largely stable body weight”. Further, in test [3] (24 weeks, listed as metformin and placebo), the “body weight change over the study” value was “did not significantly change”.

Take `CC(=O)/N=c1/sc(S(N)(=O)=O)nn1C` [methazolamide]: in test [1], the “ΔHbA1c Week 24, Mean ± SD” value is recorded as −0.26 ± 0.72%; the “ΔHbA1c Week 24, Median (range)” value is listed as −0.3 (−2.1, +0.8) %; the “HbA1c Week 24, Mean ± SD” value was determined as 6.88 ± 0.63%; the “HbA1c Week 24, Median (range)” value is reported as 7.0 (6.1, 8.0) %. Moreover, the “ΔHbA1c Week 24, MTZ − Placebo” value in test [1] (setting [4]) is listed as −0.1%. Moreover, in test [2], the “ΔBMI Week 24, Mean ± SD” value is given as −0.77 ± 0.79 kg/m^2; the “ΔBMI Week 24, Median (range)” value was −0.6 (−3.1, +0.5) kg/m^2; the “BMI Week 24, Mean ± SD” value worked out at 31.5 ± 5.1 kg/m^2; the “BMI Week 24, Median (range)” value is listed as 32.0 (24.7-39.0) kg/m^2. Moreover, the “ΔBMI Week 24, MTZ − Placebo” value in test [2] (setting [4]) is given as “+0.4 kg/m^2”. Besides, the “effect on body weight versus placebo” value in test [3] (Naïve patients not using metformin, 24 weeks) is listed as “no differences were observed; also recorded: No such additional effect”. In test [3], the “ΔBW Week 24, Mean ± SD” value was -2.3 ± 2.4 kg; the “ΔBW Week 24, Median (range)” value is −1.8 (−9.8, +1.3) kg; the “BW Week 24, Mean ± SD” value was determined as 90.7 ± 14.0 kg; the “BW Week 24, Median (range)” value is 95.3 (63.3, 106.0) kg. In addition, the “ΔBW Week 24, MTZ − Placebo” value in test [3] (setting [4]) is “+0.8 kg”. The “average body weight lost over the 24 week period” value in test [3] (metformin-treated patients further treated with methazolamide) stood at 2.2 kg. Also, in test [3] (metformin-treated patients further treated with methazolamide, 24 weeks), the “body weight lost as share of starting body weight” value is on record as 2%.
